#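 96-well plates; 48 h exposure; 5 concentrations. Endpoints by linear interpolation between flanking doses. Not reached: highest tested concentration assigned. Here, GI50 denotes the concentration required for 50% inhibition of growth.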 Activity calls are given as the source filed them. Rule as the data show it: active = GI50 up to about 1.1 µM and inactive = higher.
# Columns and labels:
# Experiment in all cases: DTP human tumour cell line panel, 48 h
# [1] = tested on: SNB-75
# [2] = tested on: NCI-H23
# [3] = tested on: HL-60
# [4] = tested on: MDA-MB-231
# [5] = tested on: KM12
# [6] = tested on: EKVX
# [7] = tested on: Hs-578T
# [8] = tested on: A498
# [9] = tested on: HT-29
# [10] = tested on: SNB-19
# [11] = tested on: MCF7
# [12] = tested on: T47D
# [13] = tested on: A549
# [14] = tested on: NCI-H460
# [15] = tested on: HCC 2998
# [16] = tested on: UO-31
# [17] = tested on: HOP-62
# [18] = tested on: K562
# [19] = tested on: HCT-116
# [20] = tested on: IGROV-1
# [21] = tested on: SK-OV-3
# [22] = tested on: CCRF-CEM
# [23] = tested on: SR
# [24] = tested on: OVCAR-5
# [25] = tested on: M14
# [26] = tested on: 786-0
# [27] = tested on: NCI-H522
# [28] = tested on: U-251
# [29] = tested on: HCT-15
# [30] = tested on: MOLT-4
# [31] = tested on: NCI/ADR-RES
# [32] = tested on: TK-10
# [33] = tested on: Malme-3M
# [34] = tested on: BT-549
# [35] = tested on: UACC-62
# [36] = tested on: PC-3
# [37] = tested on: SK-MEL-5
# [38] = tested on: HOP-92
# [39] = tested on: OVCAR-3
# [40] = tested on: CAKI-1
# [41] = tested on: LOX IMVI
# [42] = tested on: SK-MEL-28
# [43] = tested on: SW-620
# [44] = tested on: SF-295
# [45] = tested on: RPMI-8226
# [46] = tested on: SK-MEL-2
# [47] = tested on: NCI-H226
# [48] = tested on: SF-268
# [49] = tested on: SN12C
# [50] = tested on: DU-145
# [51] = tested on: MDA-MB-435
# [52] = tested on: SF-539
# [53] = tested on: MDA-N
# [54] = tested on: OVCAR-8
# [55] = tested on: UACC-257
# [56] = tested on: COLO 205
# [57] = tested on: ACHN
# [58] = tested on: OVCAR-4
# [59] = tested on: RXF 393
smiles,measurement,setting,value
C/C(=N\NC(=S)N1CCCCC1)c1nc2cccnc2[nH]1,GI50,[1],38.4 µM (inactive)
same,GI50,[2],13.6 µM (inactive)
same,GI50,[3],3.35 µM (inactive)
same,GI50,[4],3.81 µM (inactive)
same,GI50,[5],9.02 µM (inactive)
same,GI50,[6],5.3 µM (inactive)
same,GI50,[7],38.8 µM (inactive)
same,GI50,[8],17.2 µM (inactive)
same,GI50,[9],4.3 µM (inactive)
same,GI50,[10],15.7 µM (inactive)
same,GI50,[11],3.67 µM (inactive)
same,GI50,[12],5.08 µM (inactive)
same,GI50,[13],6.7 µM (inactive)
same,GI50,[14],4.03 µM (inactive)
same,GI50,[15],20.2 µM (inactive)
same,GI50,[16],4.24 µM (inactive)
same,GI50,[17],9.62 µM (inactive)
same,GI50,[18],6.9 µM (inactive)
same,GI50,[19],4.19 µM (inactive)
same,GI50,[20],21 µM (inactive)
same,GI50,[21],41.6 µM (inactive)
same,GI50,[22],2.79 µM (inactive)
same,GI50,[23],3.64 µM (inactive)
same,GI50,[24],9.66 µM (inactive)
same,GI50,[25],7.46 µM (inactive)
same,GI50,[26],18 µM (inactive)
same,GI50,[27],12.9 µM (inactive)
same,GI50,[28],9.46 µM (inactive)
same,GI50,[29],5.81 µM
same,GI50,[30],3.41 µM (inactive)
same,GI50,[31],3.83 µM (inactive)
same,GI50,[32],21.3 µM (inactive)
same,GI50,[33],27.9 µM (inactive)
same,GI50,[34],4.3 µM (inactive)
same,GI50,[35],13.7 µM (inactive)
same,GI50,[36],5.3 µM (inactive)
same,GI50,[37],4.03 µM (inactive)
same,GI50,[38],7.48 µM (inactive)
same,GI50,[39],5.15 µM (inactive)
same,GI50,[40],13.2 µM (inactive)
same,GI50,[41],7.83 µM (inactive)
same,GI50,[42],16 µM (inactive)
same,GI50,[43],6.38 µM (inactive)
same,GI50,[44],8.51 µM (inactive)
same,GI50,[45],4.33 µM (inactive)
same,GI50,[46],22 µM (inactive)
same,GI50,[47],8.53 µM (inactive)
same,GI50,[48],5.51 µM (inactive)
same,GI50,[49],19.7 µM (inactive)
same,GI50,[50],14.7 µM (inactive)
same,GI50,[51],15.1 µM (inactive)
same,GI50,[52],6.14 µM (inactive)
same,GI50,[53],14.6 µM (inactive)
same,GI50,[54],4.19 µM (inactive)
same,GI50,[55],8 µM (inactive)
same,GI50,[56],4.51 µM (inactive)
same,GI50,[57],3.95 µM (inactive)
same,GI50,[58],4.24 µM (inactive)
O=C1CC(=O)NC(NN2C(=O)/C(=C/c3ccc(Cl)cc3)N=C2c2ccccc2)=N1,GI50,[1],29.1 µM (inactive)
same,GI50,[2],16 µM (inactive)
same,GI50,[4],17.9 µM (inactive)
same,GI50,[5],13 µM (inactive)
same,GI50,[59],14.1 µM (inactive)
same,GI50,[7],14.3 µM (inactive)
same,GI50,[8],16.9 µM (inactive)
same,GI50,[9],16.4 µM (inactive)
same,GI50,[11],21.2 µM (inactive)
same,GI50,[12],28.6 µM (inactive)
same,GI50,[13],14.6 µM (inactive)
same,GI50,[14],9.53 µM (inactive)
same,GI50,[15],11.7 µM (inactive)
same,GI50,[16],16.3 µM (inactive)
same,GI50,[17],15.5 µM (inactive)
same,GI50,[18],9.62 µM (inactive)
same,GI50,[19],15.8 µM (inactive)
same,GI50,[20],13.2 µM (inactive)
same,GI50,[21],23 µM (inactive)
same,GI50,[22],6.4 µM (inactive)
same,GI50,[23],4.71 µM (inactive)
same,GI50,[24],15.1 µM (inactive)
same,GI50,[25],14.5 µM (inactive)
same,GI50,[26],17 µM (inactive)
same,GI50,[27],10.1 µM (inactive)
same,GI50,[28],15.6 µM (inactive)
same,GI50,[29],15 µM
same,GI50,[30],4.73 µM (inactive)
same,GI50,[31],14.9 µM (inactive)
same,GI50,[32],16.5 µM (inactive)
same,GI50,[33],17.3 µM (inactive)
same,GI50,[34],15.8 µM (inactive)
same,GI50,[35],12.5 µM (inactive)
same,GI50,[36],14 µM (inactive)
same,GI50,[37],17.7 µM (inactive)
same,GI50,[38],12.4 µM (inactive)
same,GI50,[39],15.9 µM (inactive)
same,GI50,[40],72.6 µM (inactive)
same,GI50,[42],19.1 µM (inactive)
same,GI50,[43],17.4 µM (inactive)
same,GI50,[44],14.5 µM (inactive)
same,GI50,[45],11.3 µM (inactive)
same,GI50,[46],15.5 µM (inactive)
same,GI50,[47],16.9 µM (inactive)
same,GI50,[48],14.1 µM (inactive)
same,GI50,[49],16.8 µM (inactive)
same,GI50,[50],30.1 µM (inactive)
same,GI50,[51],15.2 µM (inactive)
same,GI50,[52],16.8 µM (inactive)
same,GI50,[53],15.8 µM (inactive)
same,GI50,[54],14.5 µM (inactive)
same,GI50,[55],17.8 µM (inactive)
same,GI50,[56],16.8 µM (inactive)
same,GI50,[57],17.4 µM (inactive)
same,GI50,[58],5.64 µM (inactive)
CCOC(=O)/C=C(\N=P(c1ccccc1)(c1ccccc1)c1ccccc1)C(F)(F)C(F)(F)C(F)(F)C(F)(F)C(F)(F)F,GI50,[1],> 100 µM (inactive)
same,GI50,[2],> 100 µM (inactive)
same,GI50,[3],> 100 µM (inactive)
same,GI50,[4],> 100 µM (inactive)
same,GI50,[5],> 100 µM (inactive)
same,GI50,[59],> 100 µM (inactive)
same,GI50,[7],> 100 µM (inactive)
same,GI50,[8],0.0675 µM (active)
same,GI50,[9],> 100 µM (inactive)
same,GI50,[10],> 100 µM (inactive)
same,GI50,[11],> 100 µM (inactive)
same,GI50,[12],> 100 µM (inactive)
same,GI50,[13],> 100 µM (inactive)
same,GI50,[14],> 100 µM (inactive)
same,GI50,[15],> 100 µM (inactive)
same,GI50,[16],> 100 µM (inactive)
same,GI50,[17],> 100 µM (inactive)
same,GI50,[18],> 100 µM (inactive)
same,GI50,[19],> 100 µM (inactive)
same,GI50,[20],> 100 µM (inactive)
same,GI50,[21],> 100 µM (inactive)
same,GI50,[22],> 100 µM (inactive)
same,GI50,[23],> 100 µM (inactive)
same,GI50,[24],> 100 µM (inactive)
same,GI50,[25],> 100 µM (inactive)
same,GI50,[26],> 100 µM (inactive)
same,GI50,[28],> 100 µM (inactive)
same,GI50,[29],> 100 µM
same,GI50,[30],> 100 µM (inactive)
same,GI50,[31],> 100 µM (inactive)
same,GI50,[32],> 100 µM (inactive)
same,GI50,[33],> 100 µM (inactive)
same,GI50,[34],> 100 µM (inactive)
same,GI50,[35],> 100 µM (inactive)
same,GI50,[36],> 100 µM (inactive)
same,GI50,[37],> 100 µM (inactive)
same,GI50,[38],> 100 µM (inactive)
same,GI50,[39],> 100 µM (inactive)
same,GI50,[40],> 100 µM (inactive)
same,GI50,[41],> 100 µM (inactive)
same,GI50,[42],> 100 µM (inactive)
same,GI50,[43],> 100 µM (inactive)
same,GI50,[44],> 100 µM (inactive)
same,GI50,[45],> 100 µM (inactive)
same,GI50,[46],> 100 µM (inactive)
same,GI50,[48],> 100 µM (inactive)
same,GI50,[49],> 100 µM (inactive)
same,GI50,[50],> 100 µM (inactive)
same,GI50,[51],> 100 µM (inactive)
same,GI50,[52],> 100 µM (inactive)
same,GI50,[53],> 100 µM (inactive)
same,GI50,[55],> 100 µM (inactive)
same,GI50,[56],> 100 µM (inactive)
same,GI50,[57],47.8 µM (inactive)
same,GI50,[58],> 100 µM (inactive)
